Assay [1] has as its target dipeptidyl peptidase-4 (DPP-4) (UniProt P27487).
Assay [2] concerns impaired glucose tolerance (IGT) mice. Put plainly: Oral glucose tolerance test in impaired glucose tolerance (IGT) mice. Type of assay: in vivo, mouse. On the set-up: AUC of Day 1, Blood glucose level (120 min): unit not given beside the values. The conditions noted are these: for Blood Glucose Value of 30 min: 30 min after 2.5 g/kg glucose gavage; for Blood Glucose Value of 30 min / Blood Glucose Value of 60 min / Blood Glucose Value of 90 min / Blood Glucose Value of 120 min / Fasting Blood Glucose Level: M ± SD, n = 8; for Blood Glucose Value of 60 min: 60 min after 2.5 g/kg glucose gavage; for Blood Glucose Value of 90 min: 90 min after 2.5 g/kg glucose gavage; for Blood Glucose Value of 120 min: 120 min after 2.5 g/kg glucose gavage. Here is the method:
After in vitro experiments were conducted to investigate the DPP-4 inhibition ability and receptor affinity of GLP-1RAs, further in vivo experiments were conducted to compare the hypoglycemic effects of GLP-1RAs on impaired glucose tolerance (IGT) mice. The model of IGT mice was established by a one-week injection of streptozotocin, compared with the normal glucose tolerance (NGT) group, the increase in blood glucose in the IGT group after intragastric glucose administration was statistically significant, and the increase in blood glucose in each experimental group was similar after grouping (as shown in Table A2). Each group was fasted for 9 h before the last administration, fasting blood glucose (FBG) was measured one hour after administration, and then an oral glucose tolerance test (OGTT) was performed.
After fasting for 9 h, the OGTT was performed again the next day. The duration of GLP-1RAs was measured using the second day’s OGTT. […] The blood glucose level of the G1 group was lower than that of the vehicle group at each time point, and the difference was statistically significant. […] The blood sugar of IGT mice can be well controlled at a level equivalent to that of NGT mice, and the effect time of the drug was more than 24 h.
Male KM mice age 6–8 weeks with weight of 18–25 g were selected and injected with STZ at a dose of 40 mg/kg per mouse to establish mouse model of IGT. One week after the injection, OGTT was performed. Blood was collected from the tail tip of each mouse to measure the blood glucose concentration. Mice with blood glucose level increase greater than 200% after intragastric administration of glucose were selected. […] The NGT and vehicle groups were treated with normal saline, and the other groups were treated with the corresponding protein solution diluted to 20 µmol/L with normal saline. Each mouse was injected with 25 µL/10 g body weight. The FBG of each group was measured one hour after the last administration, and then 2.5 g/kg glucose solution was administered by gavage immediately, and blood glucose was measured at 30, 60, 90, and 120 min after gavage. The FBG was measured the same time the next day, and the glucose solution was administered by gavage again at 2.5 g/kg. Blood glucose was measured 30, 60, 90, and 120 min after gavage. The statistical software GraphPad Prism 8.0, was used to process the data. The blood glucose level at each time point was compared between the groups using two-way analysis of variance. p < 0.05 was considered statistically different.

Where [3] appears, read: first day OGTT, 20 µmol/L protein, 25 µL/10 g injected.

UniProt P27487, sequence (P27487 whole entry): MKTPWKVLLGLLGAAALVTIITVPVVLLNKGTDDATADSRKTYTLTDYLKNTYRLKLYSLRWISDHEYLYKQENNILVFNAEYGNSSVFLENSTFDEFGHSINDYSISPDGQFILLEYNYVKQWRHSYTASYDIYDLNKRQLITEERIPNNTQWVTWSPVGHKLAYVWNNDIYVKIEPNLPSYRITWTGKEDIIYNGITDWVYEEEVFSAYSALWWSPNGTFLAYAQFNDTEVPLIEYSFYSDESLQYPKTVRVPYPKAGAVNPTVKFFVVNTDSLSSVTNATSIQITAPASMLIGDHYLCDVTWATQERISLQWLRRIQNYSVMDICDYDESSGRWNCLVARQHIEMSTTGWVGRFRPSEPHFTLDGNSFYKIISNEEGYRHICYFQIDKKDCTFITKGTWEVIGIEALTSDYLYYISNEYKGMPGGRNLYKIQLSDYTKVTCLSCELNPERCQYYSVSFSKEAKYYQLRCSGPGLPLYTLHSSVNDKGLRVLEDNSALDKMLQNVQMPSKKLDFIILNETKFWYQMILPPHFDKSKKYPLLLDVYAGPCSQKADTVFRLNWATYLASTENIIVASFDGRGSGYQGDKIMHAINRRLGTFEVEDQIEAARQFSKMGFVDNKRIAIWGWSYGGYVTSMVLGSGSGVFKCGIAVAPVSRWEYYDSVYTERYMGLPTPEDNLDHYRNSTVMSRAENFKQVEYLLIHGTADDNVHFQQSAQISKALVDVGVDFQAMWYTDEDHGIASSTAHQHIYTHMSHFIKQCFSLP

Regarding “G1 (GLP-1 receptor agonist: GLP-1 Val33Cys, linker GCGGGGGG, antiparallel β lamellar domain of superoxide dismutase at the C-terminus) (designed binder)”, in assay [1], the Area Under Curve of the residual percentage (ELISA) during digestion with excess DPP-4, up to 24 h, 30 °C, PBS pH 7.4 was 5.14.

On to `CC[C@H](C)[C@H](NC(=O)[C@H](Cc1ccccc1)NC(=O)[C@H](CCC(=O)O)NC(=O)[C@H](CCCCN)NC(=O)[C@H](C)NC(=O)[C@H](C)NC(=O)[C@H](CCC(N)=O)NC(=O)CNC(=O)[C@H](CCC(=O)O)NC(=O)[C@H](CC(C)C)NC(=O)[C@H](Cc1ccc(O)cc1)NC(=O)[C@H](CO)NC(=O)[C@H](CO)NC(=O)[C@@H](NC(=O)[C@H](CC(=O)O)NC(=O)[C@H](CO)NC(=O)[C@@H](NC(=O)[C@H](Cc1ccccc1)NC(=O)[C@@H](NC(=O)CNC(=O)[C@H](CCC(=O)O)NC(=O)[C@H](C)NC(=O)[C@@H](N)Cc1c[nH]cn1)[C@@H](C)O)[C@@H](C)O)C(C)C)C(=O)N[C@@H](C)C(=O)N[C@@H](Cc1c[nH]c2ccccc12)C(=O)N[C@@H](CC(C)C)C(=O)N[C@H](C(=O)N[C@@H](CCCCN)C(=O)NCC(=O)N[C@@H](CCCNC(=N)N)C(N)=O)C(C)C` [GLP-1, Glucagon-like peptide-1], for which the “AUC of Day 1, Blood glucose level (120 min)” value in assay [2] (first day OGTT in IGT mice, 0-120 min, vehicle 60.54, NGT 40.57) is recorded as 47.54. Also, in assay [2] (setting [3]), the “Blood Glucose Value of 30 min” value is given as 18.2 ± 1.9 mmol/L, the “Blood Glucose Value of 60 min” value came to 13.6 ± 1.7 mmol/L, the “Blood Glucose Value of 90 min” value came to 9.3 ± 2.3 mmol/L and the “Blood Glucose Value of 120 min” value came out at 7.9 ± 1.3 mmol/L. The “Fasting Blood Glucose Level” value in assay [2] (first day, IGT mice (STZ, male KM), fasted 9 h, one hour after last administration, 20 µmol/L protein, 25 µL/10 g injected) is 4.9 ± 0.7 mmol/L. Further, in assay [2] (second day (no new dose), IGT mice fasted 9 h), the “Fasting Blood Glucose Level” value came out at 5.9 ± 1.1 mmol/L. In addition, in assay [2] (second day OGTT), the “Blood Glucose Value of 30 min” value is on record as 25.1 ± 4.1 mmol/L, the “Blood Glucose Value of 60 min” value amounted to 18.2 ± 3.4 mmol/L, the “Blood Glucose Value of 90 min” value is on record as 11.6 ± 1.9 mmol/L and the “Blood Glucose Value of 120 min” value is on record as 9.2 ± 1.3 mmol/L.

“G2 (GLP-1 receptor agonist: antiparallel β lamellar domain of superoxide dismutase at the amino terminus of GLP-1) (designed binder)”: the Area Under Curve of the residual percentage (ELISA) during digestion with excess DPP-4, up to 24 h, 30 °C, PBS pH 7.4 in assay [1] was 1.34.

In assay [1], “G4 (GLP-1 receptor agonist: GLP-1 Ser18Cys with the antiparallel β lamellar domain of superoxide dismutase at the C-terminus, without the linker) (designed binder)” yielded an Area Under Curve of the residual percentage (ELISA) during digestion with excess DPP-4, up to 24 h, 30 °C, PBS pH 7.4 of 2.47.

For the compound human GLP-1 (glucagon-like peptide-1), in assay [1], the Area Under Curve of the residual percentage (ELISA) during digestion with excess DPP-4, up to 24 h, 30 °C, PBS pH 7.4 is 1.02.

(Values after publication PMC9230455 (Pharmaceuticals, 2022).)
